# What was measured:
# [1] = test system: purple nutsedge; experiment: Test B pre/postemergence purple nutsedge; assay type: in vivo, Cyperus rotundus
# Method in brief: (§1)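 Herbicidal effect was estimated by eye on a ten-point control scale after plants spent twelve to sixteen days in a greenhouse following soil or foliar treatment. Foliar sprays targeted plants at one to four leaves; all doses were formulated in a non-phytotoxic solvent with surfactant.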
# [2] = test system: rice; experiment: Test B flood test rice; assay type: in vivo, Oryza sativa
# Method in brief: (§2)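 Flood test on plants grown to the 2-leaf stage; treated plants kept in greenhouse twelve to sixteen days, then visually rated against controls on a 0 (no effect) to 10 (complete control) scale.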
# [3] = test system: crabgrass; experiment: Test B pre/postemergence crabgrass; assay type: in vivo, Digitaria sanguinalis
# Method in brief: as §1
# [4] = test system: bedstraw; experiment: Test B pre/postemergence bedstraw; assay type: in vivo, Galium aparine
# Method in brief: as §1
# [5] = test system: corn; experiment: Test B pre/postemergence corn; assay type: in vivo, Zea mays
# Method in brief: as §1
# [6] = test system: velvetleaf; experiment: Test B pre/postemergence velvetleaf; assay type: in vivo, Abutilon theophrasti
# Method in brief: as §1
# [7] = test system: sugar beet; experiment: Test B pre/postemergence sugar beet; assay type: in vivo, Beta vulgaris
# Method in brief: as §1
# [8] = test system: smallflower flatsedge; experiment: Test B flood test smallflower flatsedge; assay type: in vivo, Cyperus difformis
# Method in brief: as §2
# [9] = test system: soybean; experiment: Test B pre/postemergence soybean; assay type: in vivo, Glycine max
# Method in brief: as §1
# [10] = test system: surinam grass; experiment: Test B pre/postemergence surinam grass; assay type: in vivo, Brachiaria decumbens
# Method in brief: as §1
# [11] = test system: pigweed; experiment: Test B pre/postemergence pigweed; assay type: in vivo, Amaranthus retroflexus
# Method in brief: as §1
# [12] = test system: bamyardgrass; experiment: Test B flood test barnyardgrass; assay type: in vivo, Echinochloa crus-galli
# Method in brief: as §2
# [13] = test system: giant foxtail; experiment: Test B pre/postemergence giant foxtail; assay type: in vivo, Setaria faberii
# Method in brief: as §1
# [14] = test system: wild oat; experiment: Test B pre/postemergence wild oat; assay type: in vivo, Avena fatua
# Method in brief: as §1
# [15] = test system: blackgrass; experiment: Test B pre/postemergence blackgrass; assay type: in vivo, Alopecurus myosuroides
# Method in brief: as §1
# [16] = test system: cocklebur; experiment: Test B pre/postemergence cocklebur; assay type: in vivo, Xanthium strumarium
# Method in brief: as §1
# [17] = Postemergence, Rate 125 g/ha, scale 0 to 10, 0 is no effect, 10 is complete control
# [18] = Preemergence, Rate 62 g/ha, scale of 0 to 10 where 0 is no effect and 10 is complete control
# [19] = Preemergence, Rate 250 g/ha, scale of 0 to 10 where 0 is no effect and 10 is complete control
# [20] = Preemergence, Rate 500 g/ha, scale of 0 to 10 where 0 is no effect and 10 is complete control
# [21] = Rate 62 g/ha, Postemergence, scale 0 to 10 (0 no effect, 10 complete control)
# [22] = Rate 500 g/ha, Postemergence, scale 0 to 10, 0 no effect, 10 complete control
# [23] = Rate 62 g/ha, headed Pre-emergence (flood test species), scale 0 to 10 (0 no effect, 10 complete control)
# [24] = Rate 125 g/ha, Pre-emergence, flood test species, scale 0 to 10 where 0 is no effect and 10 is complete control
# [25] = Rate 250 g/ha, Pre-emergence, flood-test species, scale 0 to 10, 0 is no effect, 10 is complete control
# [26] = Rate 500 g/ha, Pre-emergence, flood test species, scale 0 to 10 (0 no effect, 10 complete control)
# [27] = Rate 250 g/ha, Postemergence, scale of 0 to 10 where 0 is no effect and 10 is complete control
compound,measurement,setting,value
Cc1ccc(N(C(=O)n2oc(=O)n(-c3ccc4ccccc4c3)c2=O)C(C)C)cc1 [Compound 334],"Plant response rating, Nutsedge",[1]; [17],0
same,Nutsedge plant response rating,[1]; [18],0
same,Nutsedge plant response rating (0 to 10 scale),"[1]; Preemergence, Rate 125 g/ha",0
same,Nutsedge plant response rating,[1]; [19],0
same,Nutsedge plant response rating,[1]; [20],0
same,Nutsedge plant response rating,[1]; [21],0
same,"Plant response rating, Nutsedge",[1]; [22],0
same,Rice plant response rating,[2]; [23],0
same,Rice plant response rating,[2]; [24],0
same,Rice plant response rating,[2]; [25],0
same,Rice plant response rating,[2]; [26],0
same,"Plant response rating, Crabgrass",[3]; [17],0
same,Crabgrass plant response rating,[3]; [18],0
same,Crabgrass plant response rating (0 to 10 scale),"[3]; Preemergence, Rate 125 g/ha",0
same,Crabgrass plant response rating,[3]; [19],0
same,Crabgrass plant response rating,[3]; [20],0
same,Crabgrass plant response rating,[3]; [21],0
same,"Plant response rating, Crabgrass",[3]; [22],0
same,"Plant response rating, Bedstraw",[4]; [17],0
same,Bedstraw plant response rating,[4]; [18],0
same,Bedstraw plant response rating (0 to 10 scale),"[4]; Preemergence, Rate 125 g/ha",0
same,Bedstraw plant response rating,[4]; [19],0
same,Bedstraw plant response rating,[4]; [20],0
same,Bedstraw plant response rating,[4]; [21],0
same,"Plant response rating, Bedstraw",[4]; [22],0
same,"Plant response rating, Corn",[5]; [17],0
same,Corn plant response rating,[5]; [18],0
same,Corn plant response rating (0 to 10 scale),"[5]; Preemergence, Rate 125 g/ha",0
same,Corn plant response rating,[5]; [19],0
same,Corn plant response rating,[5]; [20],0
same,Corn plant response rating,[5]; [21],0
same,"Plant response rating, Corn",[5]; [22],0
same,"Plant response rating, Velvetleaf",[6]; [17],0
same,Velvetleaf plant response rating,[6]; [18],0
same,Velvetleaf plant response rating (0 to 10 scale),"[6]; Preemergence, Rate 125 g/ha",0
same,Velvetleaf plant response rating,[6]; [19],0
same,Velvetleaf plant response rating,[6]; [20],0
same,Velvetleaf plant response rating,[6]; [21],0
same,"Plant response rating, Velvetleaf",[6]; [22],0
same,"Plant response rating, Sugarbeets",[7]; [17],0
same,Sugarbeets plant response rating,[7]; [18],0
same,Sugarbeets plant response rating (0 to 10 scale),"[7]; Preemergence, Rate 125 g/ha",0
same,Sugarbeets plant response rating,[7]; [19],0
same,Sugarbeets plant response rating,[7]; [20],0
same,Sugarbeets plant response rating,[7]; [21],0
same,"Plant response rating, Sugarbeets",[7]; [22],0
same,S. Flatsedge plant response rating,[8]; [23],0
same,S. Flatsedge plant response rating,[8]; [24],0
same,S. Flatsedge plant response rating,[8]; [25],0
same,S. Flatsedge plant response rating,[8]; [26],0
same,"Plant response rating, Soybean",[9]; [17],1
same,Soybean plant response rating,[9]; [18],0
same,Soybean plant response rating (0 to 10 scale),"[9]; Preemergence, Rate 125 g/ha",0
same,Soybean plant response rating,[9]; [19],0
same,Soybean plant response rating,[9]; [20],0
same,Soybean plant response rating,[9]; [21],1
same,"Plant response rating, Soybean",[9]; [22],2
same,"Plant response rating, B. signalgrass",[10]; [17],0
same,B. signalgrass plant response rating,[10]; [18],0
same,"B. signalgrass plant response rating (0 to 10 scale, 0 is no effect, 10 is complete control)","[10]; Preemergence, Rate 125 g/ha",0
same,B. signalgrass plant response rating,[10]; [19],0
same,B. signalgrass plant response rating,[10]; [20],0
same,B. signalgrass plant response rating,[10]; [21],0
same,"Plant response rating, B. signalgrass",[10]; [27],0
same,"Plant response rating, B. signalgrass",[10]; [22],0
same,"Plant response rating, Redroot pigweed",[11]; [17],0
same,Redroot pigweed plant response rating,[11]; [18],0
same,Redroot pigweed plant response rating (0 to 10 scale),"[11]; Preemergence, Rate 125 g/ha",0
same,Redroot pigweed plant response rating,[11]; [19],0
same,Redroot pigweed plant response rating,[11]; [20],0
same,Redroot pigweed plant response rating,[11]; [21],0
same,"Plant response rating, Redroot pigweed",[11]; [22],0
same,Barnyardgrass plant response rating,[12]; [23],0
same,Barnyardgrass plant response rating,[12]; [24],0
same,Barnyardgrass plant response rating,[12]; [25],0
same,Barnyardgrass plant response rating,[12]; [26],0
same,"Plant response rating, Giant foxtail",[13]; [17],0
same,Giant foxtail plant response rating,[13]; [18],0
same,Giant foxtail plant response rating (0 to 10 scale),"[13]; Preemergence, Rate 125 g/ha",0
same,Giant foxtail plant response rating,[13]; [19],0
same,Giant foxtail plant response rating,[13]; [20],0
same,Giant foxtail plant response rating,[13]; [21],0
same,"Plant response rating, Giant foxtail",[13]; [22],0
same,"Plant response rating, Wild oats",[14]; [17],0
same,Wild oats plant response rating,[14]; [18],0
same,Wild oats plant response rating (0 to 10 scale),"[14]; Preemergence, Rate 125 g/ha",0
same,Wild oats plant response rating,[14]; [19],0
same,Wild oats plant response rating,[14]; [20],0
same,Wild oats plant response rating,[14]; [21],0
same,"Plant response rating, Wild oats",[14]; [22],0
same,"Plant response rating, Blackgrass",[15]; [17],0
same,Blackgrass plant response rating,[15]; [18],0
same,Blackgrass plant response rating (0 to 10 scale),"[15]; Preemergence, Rate 125 g/ha",0
same,Blackgrass plant response rating,[15]; [19],0
same,Blackgrass plant response rating,[15]; [20],0
same,Blackgrass plant response rating,[15]; [21],0
same,"Plant response rating, Blackgrass",[15]; [27],0
same,"Plant response rating, Blackgrass",[15]; [22],0
same,"Plant response rating, Cocklebur",[16]; [17],0
same,Cocklebur plant response rating,[16]; [18],0
same,Cocklebur plant response rating (0 to 10 scale),"[16]; Preemergence, Rate 125 g/ha",0
same,Cocklebur plant response rating,[16]; [19],0
same,Cocklebur plant response rating,[16]; [20],0
same,Cocklebur plant response rating,[16]; [21],0
same,"Plant response rating, Cocklebur",[16]; [22],0
